Assay results from patent publication US20190315806A1, “POLYMYXIN DERIVATIVE, PREPARATION METHOD AND APPLICATION THEREOF” (priority 2016, published 2019).
Converted amounts (≈) assume the structure as drawn. Where a SMILES comes first, the peptide text is derived from it. Bridges are numbered along the chain shown (N, C = ends). [ ]: non-standard residue; d: D form. The star is where a group is joined. dPhe(4-NO2) = N[C@H](Cc1ccc([N+](=O)[O-])cc1)C(=O)O; dBpa = N[C@H](Cc1ccc(C(=O)c2ccccc2)cc1)C(=O)O; dPhe(4-Cl) = N[C@H](Cc1ccc(Cl)cc1)C(=O)O; dPhe(2-Cl) = N[C@H](Cc1ccccc1Cl)C(=O)O; Heptanoyl(6-Me) = CC(C)CCCCC(=O)*; X2 = CC[C@H](C)CCCCC(=O)*; dDab = NCC[C@@H](N)C(=O)O; Heptanoyl = CCCCCCC(=O)*; Octanoyl = CCCCCCCC(=O)*; Dab = NCC[C@H](N)C(=O)O

Assays:
Assay type in all cases: cell-based
[1] = system: Acinetobacter baumannii ATCC 19606; conditions: ATCC 19606
Description: (§1) The minimum inhibitory concentration (MIC) was determined by means of dish double dilution method using a Multipoint inoculator according to the CLSI recommended method. The compounds of the present invention (for example, the compounds prepared in the Embodiments) and the reference substances were diluted twice each time with the broth into various desired concentrations, and appropriate amounts were added to the dishes. Agar medium is melted, and then quantitatively injected into the dish containing the drug solution, and mixed. The final concentrations of the compounds of the invention (e.g., the compounds prepared in the Embodiments) and the controls were 0.03, 0.06, 0.125, 0.25 . . . 128 μg/mL, respectively. The test bacteria were cultured overnight with nutrient broth, brain heart infusion or HTM broth. During the tests, the bacterial solutions were diluted appropriately, and the test bacteria (inoculation amount 10^4 CFU/dot) were inoculated on the surface of the drug-containing agar by a multi-point inoculator. After drying, the bacterial was incubated for 18 to 24 hours at 35° C., the results were observed, the minimum concentrations of the compounds of the present invention (for example, the compounds prepared in the Embodiments) and the controls contained in the dishes with no growth of colonies were MICs.
(§2) The strains used in the antibacterial activity experiments were from the American Type Culture Collection (ATCC) and clinical isolates.
(§3) The strains used for the experiments on antibacterial activity included Escherichia coli ATCC 25922, Klebsiella pneumoniae ATCC BAA-2146 (NDM-1), Pseudomonas aeruginosa ATCC 27853, Acinetobacter baumannii ATCC 19606 and Staphylococcus epidermidis ATCC 12228.
(§4) Tested samples: polymyxin derivatives prepared according to the technical scheme of the present invention;
(§5) Controls: polymyxin B sulfate and colistin (polymyxin E sulfate).

[2] = system: Escherichia coli ATCC 25922; conditions: ATCC 25922
Description: as §1, §2, §3, §4, §5

[3] = system: Pseudomonas aeruginosa ATCC 27853; conditions: ATCC 27853
Description: as §1, §2, §3, §4, §5

[4] = system: Staphylococcus epidermidis ATCC 12228; conditions: ATCC 12228
Description: as §1, §2, §3, §4, §5

[5] = system: Klebsiella pneumoniae ATCC BAA-2146 (NDM-1); assay: Antibacterial activity, MIC by dish double dilution method
Description: as §1, §2, §3, §4, §5

MIC A. baumannii ATCC 19606 [1] [µg/mL]	MIC E. coli ATCC 25922 [2] [µg/mL]	MIC P. aeruginosa ATCC 27853 [3] [µg/mL]	MIC S. epidermidis ATCC 12228 [4] [µg/mL]	MIC K. pneumoniae ATCC BAA-2146 (NDM-1) ([5]; ATCC BAA-2146) [µg/mL]	Structure (SMILES)	MIC K. pneumoniae ATCC BAA-2146 (NDM-1) ([5]; agar dilution, 10^4 CFU/dot, 18 to 24 hours at 35° C.) [µg/mL]
0.5 (≈ 0.438 µM)	0.5 (≈ 0.438 µM)	1 (≈ 0.875 µM)	>128	1 (≈ 0.875 µM)	CCCCCCCC(=O)N[C@@H](CCN)C(=O)N[C@H](C(=O)N[C@@H](CO)C(=O)N[C@H]1CCNC(=O)[C@H]([C@@H](C)O)NC(=O)[C@H](CCN)NC(=O)[C@H](CCN)NC(=O)[C@H](CC(C)C)NC(=O)[C@@H](CC(C)C)NC(=O)[C@H](CCN)NC1=O)[C@@H](C)O [Compound 98, octanoyl-Dab-Thr-Ser-ring(4-10)[Dab-Dab-D-Leu-Leu-Dab-Dab-Thr]] (Octanoyl-[Dab]TS[Dab][Dab][dL]L[Dab][Dab]T; lactam 4-C)	–
0.5 (≈ 0.404 µM)	1 (≈ 0.808 µM)	2 (≈ 1.62 µM)	4 (≈ 3.23 µM)	2 (≈ 1.62 µM)	CC[C@H](C)CCCCC(=O)N[C@@H](CCN)C(=O)N[C@H](C(=O)N[C@@H](CCN)C(=O)N[C@H]1CCNC(=O)[C@H]([C@@H](C)O)NC(=O)[C@H](CCN)NC(=O)[C@H](CCN)NC(=O)[C@H](CC(C)C)NC(=O)[C@@H](Cc2ccccc2Cl)NC(=O)[C@H](CCN)NC1=O)[C@@H](C)O [Compound 18, (S)-6-methyloctanoyl-Dab-Thr-Dab-ring(4-10)[Dab-Dab-D-Phe(2-Cl)-Lue-Dab-Dab-Thr]] (X2-[Dab]T[Dab][Dab][Dab][dPhe(2-Cl)]L[Dab][Dab]T; lactam 4-C)	–
1 (≈ 0.765 µM)	2 (≈ 1.53 µM)	4 (≈ 3.06 µM)	16 (≈ 12.2 µM)	2 (≈ 1.53 µM)	CC[C@H](C)CCCCC(=O)N[C@@H](CCN)C(=O)N[C@H](C(=O)N[C@@H](CCN)C(=O)N[C@H]1CCNC(=O)[C@H]([C@@H](C)O)NC(=O)[C@H](CCN)NC(=O)[C@H](CCN)NC(=O)[C@H](CC(C)C)NC(=O)[C@@H](Cc2ccc(C(=O)c3ccccc3)cc2)NC(=O)[C@H](CCN)NC1=O)[C@@H](C)O [Compound 29, (S)-6-methyloctanoyl-Dab-Thr-Dab-ring(4-10)[Dab-Dab-D-Phe(4-benzoyl)-Lue-Dab-Dab-Thr]] (X2-[Dab]T[Dab][Dab][Dab][dBpa]L[Dab][Dab]T; lactam 4-C)	–
0.5 (≈ 0.437 µM)	0.25 (≈ 0.219 µM)	1 (≈ 0.875 µM)	64 (≈ 56 µM)	0.5 (≈ 0.437 µM)	CCCCCCCC(=O)N[C@@H](CCN)C(=O)N[C@H](C(=O)N[C@@H](CCN)C(=O)N[C@H]1CCNC(=O)[C@H]([C@@H](C)O)NC(=O)[C@H](CCN)NC(=O)[C@H](CCN)NC(=O)[C@H]([C@@H](C)O)NC(=O)[C@@H](CC(C)C)NC(=O)[C@H](CCN)NC1=O)[C@@H](C)O [Compound 104, octanoyl-Dab-Thr-Dab-ring(4-10)[Dab-Dab-D-Leu-Thr-Dab-Dab-Thr]] (Octanoyl-[Dab]T[Dab][Dab][Dab][dL]T[Dab][Dab]T; lactam 4-C)	–
1 (≈ 0.876 µM)	0.5 (≈ 0.438 µM)	1 (≈ 0.876 µM)	>128	1 (≈ 0.876 µM)	CCCCCCC(=O)N[C@@H](CCN)C(=O)N[C@H](C(=O)N[C@@H](CCN)C(=O)N[C@H]1CCNC(=O)[C@H]([C@@H](C)O)NC(=O)[C@H](CCN)NC(=O)[C@H](CCN)NC(=O)[C@H]([C@@H](C)CC)NC(=O)[C@@H](CC(C)C)NC(=O)[C@H](CCN)NC1=O)[C@@H](C)O [Compound 83, heptanoyl-Dab-Thr-Dab-ring(4-10)[Dab-Dab-D-Leu-Ile-Dab-Dab-Thr]] (Heptanoyl-[Dab]T[Dab][Dab][Dab][dL]I[Dab][Dab]T; lactam 4-C)	–
1 (≈ 0.808 µM)	1 (≈ 0.808 µM)	2 (≈ 1.62 µM)	16 (≈ 12.9 µM)	2 (≈ 1.62 µM)	CC[C@H](C)CCCCC(=O)N[C@@H](CCN)C(=O)N[C@H](C(=O)N[C@@H](CCN)C(=O)N[C@H]1CCNC(=O)[C@H]([C@@H](C)O)NC(=O)[C@H](CCN)NC(=O)[C@H](CCN)NC(=O)[C@H](CC(C)C)NC(=O)[C@@H](Cc2ccc(Cl)cc2)NC(=O)[C@H](CCN)NC1=O)[C@@H](C)O [Compound 16, (S)-6-methyloctanoyl-Dab-Thr-Dab-ring(4-10)[Dab-Dab-D-Phe(4-Cl)-Lue-Dab-Dab-Thr]] (X2-[Dab]T[Dab][Dab][Dab][dPhe(4-Cl)]L[Dab][Dab]T; lactam 4-C)	–
1 (≈ 0.849 µM)	0.5 (≈ 0.425 µM)	1 (≈ 0.849 µM)	>128	1 (≈ 0.849 µM)	CC(C)CCCCC(=O)N[C@@H](CCN)C(=O)N[C@H](C(=O)N[C@H](CCN)C(=O)N[C@H]1CCNC(=O)[C@H]([C@@H](C)O)NC(=O)[C@H](CCN)NC(=O)[C@H](CCN)NC(=O)[C@H]([C@@H](C)O)NC(=O)[C@@H](Cc2ccccc2)NC(=O)[C@H](CCN)NC1=O)[C@@H](C)O [Compound 144, 6-methylheptanoyl-Dab-Thr-D-Dab-ring(4-10)[Dab-Dab-D-Phe-Thr-Dab-Dab-Thr]] ({Heptanoyl(6-Me)}-[Dab]T[dDab][Dab][Dab][dF]T[Dab][Dab]T; lactam 4-C)	–
1 (≈ 0.811 µM)	1 (≈ 0.811 µM)	2 (≈ 1.62 µM)	16 (≈ 13 µM)	2 (≈ 1.62 µM)	CC[C@H](C)CCCCC(=O)N[C@@H](CCN)C(=O)N[C@H](C(=O)N[C@@H](CCN)C(=O)N[C@H]1CCNC(=O)[C@H]([C@@H](C)O)NC(=O)[C@H](CCN)NC(=O)[C@H](CCN)NC(=O)[C@H](CC(C)C)NC(=O)[C@@H](Cc2ccc(OC)cc2)NC(=O)[C@H](CCN)NC1=O)[C@@H](C)O [Compound 24, (S)-6-methyloctanoyl-Dab-Thr-Dab-ring(4-10)[Dab-Dab-D-Phe(4-OCH3)-Lue-Dab-Dab-Thr]] (X2-[Dab]T[Dab][Dab][Dab][dY](Me)L[Dab][Dab]T; lactam 4-C)	–
1 (≈ 0.801 µM)	1 (≈ 0.801 µM)	2 (≈ 1.6 µM)	8 (≈ 6.41 µM)	2 (≈ 1.6 µM)	CC[C@H](C)CCCCC(=O)N[C@@H](CCN)C(=O)N[C@H](C(=O)N[C@@H](CCN)C(=O)N[C@H]1CCNC(=O)[C@H]([C@@H](C)O)NC(=O)[C@H](CCN)NC(=O)[C@H](CCN)NC(=O)[C@H](CC(C)C)NC(=O)[C@@H](Cc2ccc([N+](=O)[O-])cc2)NC(=O)[C@H](CCN)NC1=O)[C@@H](C)O [Compound 14, (S)-6-methyloctanoyl-Dab-Thr-Dab-ring(4-10)[Dab-Dab-D-Phe(4-NO2)-Lue-Dab-Dab-Thr]] (X2-[Dab]T[Dab][Dab][Dab][dPhe(4-NO2)]L[Dab][Dab]T; lactam 4-C)	–
1 (≈ 0.876 µM)	0.5 (≈ 0.438 µM)	1 (≈ 0.876 µM)	>128	0.5 (≈ 0.438 µM)	CCCCCCCC(=O)N[C@@H](CCN)C(=O)N[C@H](C(=O)N[C@@H](CCN)C(=O)N[C@H]1CCNC(=O)[C@H]([C@@H](C)O)NC(=O)[C@H](CCN)NC(=O)[C@H](CCN)NC(=O)[C@H](C(C)C)NC(=O)[C@@H](CC(C)C)NC(=O)[C@H](CCN)NC1=O)[C@@H](C)O [Compound 80, octanoyl-Dab-Thr-Dab-ring(4-10)[Dab-Dab-D-Leu-Val-Dab-Dab-Thr]] (Octanoyl-[Dab]T[Dab][Dab][Dab][dL]V[Dab][Dab]T; lactam 4-C)	–

Structure (SMILES)	MIC A. baumannii ATCC 19606 [1] [µg/mL]	MIC E. coli ATCC 25922 [2] [µg/mL]	MIC P. aeruginosa ATCC 27853 [3] [µg/mL]	MIC S. epidermidis ATCC 12228 [4] [µg/mL]	MIC K. pneumoniae ATCC BAA-2146 (NDM-1) ([5]; ATCC BAA-2146) [µg/mL]	MIC K. pneumoniae ATCC BAA-2146 (NDM-1) ([5]; agar dilution, 10^4 CFU/dot, 18 to 24 hours at 35° C.) [µg/mL]
CC(C)CCCCC(=O)N[C@@H](CCN)C(=O)N[C@H](C(=O)N[C@@H](CCN)C(=O)N[C@H]1CCNC(=O)[C@H]([C@@H](C)O)NC(=O)[C@H](CCN)NC(=O)[C@H](CCN)NC(=O)[C@H](CC(C)C)NC(=O)[C@@H](CC(C)C)NC(=O)[C@H](CCN)NC1=O)[C@@H](C)O [Compound 74, 6-methylheptanoyl-Dab-Thr-Dab-ring(4-10)[Dab-Dab-D-Leu-Leu-Dab-Dab-Thr]] ({Heptanoyl(6-Me)}-[Dab]T[Dab][Dab][Dab][dL]L[Dab][Dab]T; lactam 4-C)	0.5 (≈ 0.433 µM)	0.5 (≈ 0.433 µM)	2 (≈ 1.73 µM)	64 (≈ 55.4 µM)	–	1 (≈ 0.865 µM)
